According to PubChem BioAssay AID248 (DTP/NCI, 2004):
Values joined by “and” are separate entries in the source; they are usually repeats but may differ in a detail not shown here. Equal values may be shown once. Inconclusive results and toxic doses are left out. No stated cut-off is given here; in the data, active means T/C of 150% or more; inactive means T/C below 125%.

Tested on: L1210 leukemia ip in BDF1 mice, survival T/C
Test: NCI In Vivo Anticancer Drug Screen. Data for tumor model L1210 Leukemia (intraperitoneal) in B6D2F1 (BDF1) mice
Settings: endpoint: mean survival time, higher = longer survival
How it was run: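 Survival endpoint. Drug-treated group vs vehicle group, expressed as T divided by C. Tumor passaged by transplantation.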

[1] = dose: 100.0 mg/kg/injection, schedule: Q04DX003 (ip), vehicle: saline with Tween-80
[2] = dose: 200.0 mg/kg/injection, schedule: Q04DX003 (ip), vehicle: saline with Tween-80
[3] = dose: 400.0 mg/kg/injection, schedule: Q04DX003 (ip), vehicle: saline with Tween-80
[4] = dose: 100.0 mg/kg/injection, schedule: Q01DX009 (ip), vehicle: saline
[5] = dose: 100.0 mg/kg/injection, schedule: Q04DX002 (ip), vehicle: saline with Tween-80
[6] = dose: 200.0 mg/kg/injection, schedule: Q04DX002 (ip), vehicle: saline with Tween-80
[7] = dose: 400.0 mg/kg/injection, schedule: Q04DX002 (ip), vehicle: saline with Tween-80
[8] = dose: 50.0 mg/kg/injection, schedule: Q01DX001 (ip), vehicle: saline
[9] = dose: 100.0 mg/kg/injection, schedule: Q01DX001 (ip), vehicle: saline
[10] = dose: 100.0 mg/kg/injection, schedule: Q04DX002 (ip), vehicle: saline
[11] = dose: 200.0 mg/kg/injection, schedule: Q01DX001 (ip), vehicle: saline
[12] = dose: 200.0 mg/kg/injection, schedule: Q04DX002 (ip), vehicle: saline
[13] = dose: 400.0 mg/kg/injection, schedule: Q01DX001 (ip), vehicle: saline
[14] = dose: 400.0 mg/kg/injection, schedule: Q04DX002 (ip), vehicle: saline
[15] = dose: 100.0 mg/kg/injection, schedule: Q04DX002 (ip), vehicle: Klucel (hydroxypropylcellulose) (HPC)
[16] = dose: 200.0 mg/kg/injection, schedule: Q04DX002 (ip), vehicle: Klucel (hydroxypropylcellulose) (HPC)
[17] = dose: 400.0 mg/kg/injection, schedule: Q04DX002 (ip), vehicle: Klucel (hydroxypropylcellulose) (HPC)

Measured: T/C

CCOC(=O)c1cc2ccccc2c2ccccc12
inactive: [1] 98 % of control | [2] 95 % of control | [3] 98 % of control

N=C(N)SCc1c2ccccc2cc2ccccc12
inactive: dose: 88.0 mg/kg/injection, schedule: Q01DX009 (ip), vehicle: saline sonified 102 % of control | [4] 102 % of control | dose: 100.0 mg/kg/injection, schedule: Q04DX003 (ip), vehicle: saline 104 % of control | dose: 132.0 mg/kg/injection, schedule: Q01DX009 (ip), vehicle: saline sonified 105 % of control | dose: 200.0 mg/kg/injection, schedule: Q01DX009 (ip), vehicle: saline sonified 114 % of control | dose: 200.0 mg/kg/injection, schedule: Q04DX003 (ip), vehicle: saline 102 % of control | dose: 400.0 mg/kg/injection, schedule: Q04DX003 (ip), vehicle: saline 112 % of control

O=C(NCCCCC(NC(=O)c1ccccc1)C(=O)NCCCCCCCCCCNC(=O)C(CCCCNC(=O)c1ccccc1)NC(=O)c1ccccc1)c1ccccc1 (stereo not given)
inactive: dose: 10.0 mg/kg/injection, schedule: Q01DX Z (ip), vehicle: saline 100 % of control | dose: 30.0 mg/kg/injection, schedule: Q01DX Z (ip), vehicle: saline 90 % of control

O=C(O)C(Cl)C(C(=O)O)c1ccccc1 (stereo not given)
inactive: [5] 101 % of control | [6] 93 % of control | [7] 93 % of control

Nc1ccc2c(c1)C(=O)c1ccccc1C2=O
inactive: [8] 98 % of control | [9] 102 % of control | [4] 92 % of control | [10] 100 % of control | [11] 102 % of control | dose: 200.0 mg/kg/injection, schedule: Q01DX009 (ip), vehicle: saline 92 % of control | [12] 93 % of control | [13] 102 % of control | dose: 400.0 mg/kg/injection, schedule: Q01DX009 (ip), vehicle: saline 92 % of control | [14] 93 % of control

NC(=O)C[n+]1ccccc1
inactive: [9] 106 % of control | [11] 98 % of control | [13] 97 % of control

COc1ccc(-n2c(=O)c(N=Nc3ccc(Br)cc3)c(O)n(-c3ccc(I)cc3)c2=S)cc1
inactive: dose: 50.0 mg/kg/injection, schedule: Q01DX001 (ip), vehicle: Klucel (hydroxypropylcellulose) (HPC) 103 % of control | dose: 100.0 mg/kg/injection, schedule: Q01DX001 (ip), vehicle: Klucel (hydroxypropylcellulose) (HPC) 100 % of control | dose: 200.0 mg/kg/injection, schedule: Q01DX001 (ip), vehicle: Klucel (hydroxypropylcellulose) (HPC) 91 % of control

CC(NC(=O)NCCCl)c1cccc([N+](=O)[O-])c1 (stereo not given)
inactive: [15] 94 % of control | [16] 105 % of control | [17] 119 % of control

c1ccc(NC2=NCCN2)nc1
inactive: dose: 75.0 mg/kg/injection, schedule: Q01DX001 (ip), vehicle: saline 93 % of control

Cc1c(/C=N/N=c2/[nH][nH]/c(=N/N=C/c3c(C)n(C)n(-c4ccccc4)c3=O)c3ccccc23)c(=O)n(-c2ccccc2)n1C
inactive: [8] 93 % of control | [9] 106 % of control | [11] 114 % of control

O=[N+]([O-])c1cccn2ncnc12
inactive: dose: 5.0 mg/kg/injection, schedule: Q01DX001 (ip), vehicle: acetone 104 % of control | dose: 10.0 mg/kg/injection, schedule: Q01DX001 (ip), vehicle: acetone 106 % of control | dose: 20.0 mg/kg/injection, schedule: Q01DX001 (ip), vehicle: acetone 96 % of control | dose: 40.0 mg/kg/injection, schedule: Q01DX001 (ip), vehicle: acetone 96 % of control | dose: 80.0 mg/kg/injection, schedule: Q01DX001 (ip), vehicle: acetone 107 % of control

O=C(c1ccccc1[N+](=O)[O-])C(Br)C(Br)c1ccc2c(c1)OCO2 (stereo not given)
inactive: dose: 100.0 mg/kg/injection, schedule: Q01DX009 (ip), vehicle: saline with Tween-80 97 % of control and 87 % of control | dose: 200.0 mg/kg/injection, schedule: Q01DX009 (ip), vehicle: saline with Tween-80 94 % of control and 95 % of control | dose: 400.0 mg/kg/injection, schedule: Q01DX009 (ip), vehicle: saline with Tween-80 97 % of control

CC(C)N(CCC#N)C(=S)Nc1cccc2ccccc12
inactive: dose: 100.0 mg/kg/injection, schedule: Q01DX009 (ip), vehicle: Klucel (hydroxypropylcellulose) (HPC) 93 % of control | dose: 200.0 mg/kg/injection, schedule: Q01DX009 (ip), vehicle: Klucel (hydroxypropylcellulose) (HPC) 87 % of control | dose: 400.0 mg/kg/injection, schedule: Q01DX009 (ip), vehicle: Klucel (hydroxypropylcellulose) (HPC) 102 % of control

O=C(O)C1=CCC=CC1
inactive: [1] 98 % of control | [2] 109 % of control | [3] 106 % of control

c1ccc2c(CCCCc3nccc4ccccc34)nccc2c1
inactive: [15] 102 % of control | [16] 97 % of control | [17] 89 % of control

c1n[nH]c2c1CCC2
inactive: dose: 75.0 mg/kg/injection, schedule: Q01DX009 (ip), vehicle: saline with Tween-80 97 % of control | dose: 150.0 mg/kg/injection, schedule: Q01DX009 (ip), vehicle: saline with Tween-80 110 % of control

O=C(c1ccccc1)c1cccc([N+](=O)[O-])c1
inactive: [1] 98 % of control | [2] 93 % of control | [3] 89 % of control

CNC/C(Cl)=N/S(=O)(=O)c1ccc(C)cc1
inactive: dose: 12.5 mg/kg/injection, schedule: Q04DX002 (ip), vehicle: other 106 % of control | dose: 25.0 mg/kg/injection, schedule: Q04DX002 (ip), vehicle: other 98 % of control | dose: 50.0 mg/kg/injection, schedule: Q04DX002 (ip), vehicle: other 95 % of control | dose: 50.0 mg/kg/injection, schedule: Q04DX002 (ip), vehicle: saline with Tween-80 96 % of control | [5] 99 % of control | [6] 96 % of control | [7] 108 % of control

Cc1cc(N(CCCl)CCCl)ccc1C=Nc1ccc(-c2csc(-c3ccccc3)n2)cc1
inactive: dose: 50.0 mg/kg/injection, schedule: Q01DX001 (ip), vehicle: carboxymethylcellulose (CMC) 103 % of control | dose: 100.0 mg/kg/injection, schedule: Q01DX001 (ip), vehicle: carboxymethylcellulose (CMC) 94 % of control | dose: 200.0 mg/kg/injection, schedule: Q01DX001 (ip), vehicle: carboxymethylcellulose (CMC) 97 % of control | dose: 400.0 mg/kg/injection, schedule: Q01DX001 (ip), vehicle: carboxymethylcellulose (CMC) 100 % of control

CC1=C(N)C(=O)C2=C(C1=O)N1CC3C(N3C)C1(O)C2COC(N)=O (stereo not given)
inactive: dose: 15.0 mg/kg/injection, schedule: Q01DX001 (ip), vehicle: acetone 111 % of control | dose: 23.0 mg/kg/injection, schedule: Q01DX001 (ip), vehicle: acetone 109 % of control | dose: 35.0 mg/kg/injection, schedule: Q01DX001 (ip), vehicle: saline 111 % of control | dose: 50.0 mg/kg/injection, schedule: Q01DX001 (ip), vehicle: acetone 108 % of control | [8] 118 % of control

OCC[N+]12CN3CN(CN(C3)C1)C2
inactive: [10] 113 % of control | [12] 106 % of control | [14] 106 % of control

O=C(CNNc1ccc([N+](=O)[O-])cn1)Nc1ccc(S(=O)(=O)c2ccc(NC(=O)CNNc3ccc([N+](=O)[O-])cn3)cc2)cc1
inactive: dose: 10.0 mg/kg/injection, schedule: Q01DX Z (ip), vehicle: methylcellulose (MC) 91 % of control | dose: 15.0 mg/kg/injection, schedule: Q01DX Z (ip), vehicle: methylcellulose (MC) 95 % of control | dose: 22.5 mg/kg/injection, schedule: Q01DX Z (ip), vehicle: methylcellulose (MC) 94 % of control

CCCCCCCCC(=O)N1CCN(C(=O)CCCCCCCC)C1
inactive: dose: 30.0 mg/kg/injection, schedule: Q01DX001 (ip), vehicle: saline 96 % of control | [9] 96 % of control | dose: 300.0 mg/kg/injection, schedule: Q01DX001 (ip), vehicle: saline 91 % of control
